In paper PMC6802847, “Mutual role of ecto-5'-nucleotidase/CD73 and concentrative nucleoside transporter 3 in the intestinal uptake of dAMP” (PLoS ONE, 2019):

Assays:
[1] = target: T1, ecto-5'-nucleotidase/CD73 (Homo sapiens, UniProt P21589); assay: phosphate release from […] dAMP in COS-7 cells expressing CD73
T1 construct: gene NT5E
T1 sequence (P21589 27-549): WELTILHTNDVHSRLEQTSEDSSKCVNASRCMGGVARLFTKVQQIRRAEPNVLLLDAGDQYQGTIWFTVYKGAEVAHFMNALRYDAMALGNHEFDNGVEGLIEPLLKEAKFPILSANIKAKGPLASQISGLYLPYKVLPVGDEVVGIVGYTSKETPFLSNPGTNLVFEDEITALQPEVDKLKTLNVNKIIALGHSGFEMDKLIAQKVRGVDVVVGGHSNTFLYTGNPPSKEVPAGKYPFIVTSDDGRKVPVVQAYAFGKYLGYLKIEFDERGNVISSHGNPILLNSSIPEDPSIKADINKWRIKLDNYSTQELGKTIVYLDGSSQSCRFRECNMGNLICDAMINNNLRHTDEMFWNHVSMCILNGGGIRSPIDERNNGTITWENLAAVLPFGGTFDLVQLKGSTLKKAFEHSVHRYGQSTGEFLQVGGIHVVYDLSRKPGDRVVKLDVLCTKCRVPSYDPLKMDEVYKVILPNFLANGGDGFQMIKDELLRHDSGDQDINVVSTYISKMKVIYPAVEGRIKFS

[2] = target: T2, concentrative nucleoside transporter 3 (CNT3) (Homo sapiens, UniProt Q9HAS3); assay: radiolabelled uptake ([…]) in COS-7 cells transiently expressing CNT3 vs mock; assay type: cell-based
T2 construct: gene SLC28A3
T2 sequence (Q9HAS3 1-691): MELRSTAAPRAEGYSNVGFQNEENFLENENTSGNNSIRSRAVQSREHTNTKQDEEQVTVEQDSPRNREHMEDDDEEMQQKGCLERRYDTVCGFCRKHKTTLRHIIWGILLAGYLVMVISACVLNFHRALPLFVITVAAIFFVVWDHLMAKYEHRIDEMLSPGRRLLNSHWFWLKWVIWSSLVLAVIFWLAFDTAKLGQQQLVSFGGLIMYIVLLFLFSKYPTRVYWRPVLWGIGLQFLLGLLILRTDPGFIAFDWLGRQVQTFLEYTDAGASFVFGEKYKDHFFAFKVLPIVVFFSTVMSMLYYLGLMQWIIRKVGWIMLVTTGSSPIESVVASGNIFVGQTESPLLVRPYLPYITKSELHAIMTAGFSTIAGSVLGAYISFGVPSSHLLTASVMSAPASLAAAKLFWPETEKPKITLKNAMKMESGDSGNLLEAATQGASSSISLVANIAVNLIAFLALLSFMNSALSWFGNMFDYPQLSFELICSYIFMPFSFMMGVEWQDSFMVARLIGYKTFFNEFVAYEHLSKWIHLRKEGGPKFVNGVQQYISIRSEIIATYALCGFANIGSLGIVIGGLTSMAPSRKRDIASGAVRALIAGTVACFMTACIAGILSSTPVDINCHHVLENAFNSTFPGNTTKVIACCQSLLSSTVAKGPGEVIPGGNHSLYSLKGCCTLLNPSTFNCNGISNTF

[3] = target: T2, concentrative nucleoside transporter 3 (CNT3); assay: radiolabelled uptake ([…]) in COS-7 cells transiently expressing CNT3 vs empty vector; assay type: cell-based
[4] = substrate: Nc1ncnc2c1ncn2C1CC(O)C(CO)O1; assay: cells, lysate or membranes; settings: Na+
[5] = substrate: Nc1ncnc2c1ncn2[C@H]1C[C@H](O)[C@@H](COP(=O)(O)O)O1; assay: cells, lysate or membranes; settings: Na+

For `Nc1ncnc2c1ncn2[C@H]1C[C@H](O)[C@@H](COP(=O)(O)O)O1` [2'-deoxyadenosine 5'-monophosphate], the “phosphate release from 10 μM dAMP in COS-7 cells expressing CD73” value [1] was “the phosphate release from dAMP was significantly increased by the introduction of CD73 into COS-7 cells”.

For `Cc1cn([C@H]2C[C@H](O)[C@@H](CO)O2)c(=O)[nH]c1=O` [thymidine], the “radiolabelled uptake (10 nM) in COS-7 cells transiently expressing CNT3 vs mock” value [2] was “Transfection of CNT3 cDNA into COS-7 cells resulted in an increased uptake of [^3H]thymidine, a typical substrate of CNT3”.

With `Nc1ncnc2c1ncn2[C@@H]1O[C@H](COP(=O)(O)O)[C@@H](O)[C@H]1O` [Adenosine 5'-monophosphate] the “radiolabelled uptake (10 nM) in COS-7 cells transiently expressing CNT3 vs empty” value [3] was “enhanced cellular uptake of [^3H]AMP with the introduction of CNT3 alone was greater than that of [^3H]dAMP”.

B1: concentrative nucleoside transporter 3 (CNT3) (Homo sapiens) (protein)
chain: T2 sequence (Q9HAS3 1-691)
Molecule B1 has a Km [4] of 56.3 ± 7.0 µM and a Km [5] of 59.6 ± 3.8 µM.
